Publication PMC9298630 (Journal of Food and Drug Analysis, 2018)
Like-named read-outs stand apart in the source and are kept apart here.

Assays:
[1] = S. Chinese remedy-treated rats; cited from earlier work
[2] = oral suspension (40 mg/ml), 7 days, participants; cited from earlier work
[3] = for AUC0–t / AUC0–∞ / CL/F (apparent clearance) / Cmax / Tmax / Vd/F / t1/2: rats, mean ± SEM
[4] = Stability of analytes in stored plasma samples; settings: −80 °C, rat plasma
[5] = cited from earlier work
[6] = test system: rat liver microsomal NFO activity (CYP3A); experiment: Inhibition of rat liver microsomal nifedipine oxidation; assay type: in vitro ADME; settings: 100 μM, 10-min NADPH-fortified pre-incubation
[7] = oral nifedipine 3 mg/kg 1 h after SY 0.95 g/kg
[8] = oral nifedipine 3 mg/kg 1 h after SY […]
[9] = oral nifedipine 3 mg/kg together with ketoconazole 30 mg/kg
[10] = oral nifedipine 3 mg/kg, control

COc1cc2c(c(OC)c1OC)-c1c(cc3c(c1OC)OCO3)CC(C)C(C)C2 (stereo not drawn) [schisandrin B]
Tmax [1]: about 4 h

CC[C@@H]([C@H](C)O)n1ncn(-c2ccc(N3CCN(c4ccc(OC[C@@H]5CO[C@@](Cn6cncn6)(c6ccc(F)cc6F)C5)cc4)CC3)cc2)c1=O [posaconazole]
mean Cmax at 200 mg 4 times daily relative to 400 mg twice daily [2]: 2 fold

COC(=O)c1c(C)nc(C)c(C(=O)OC)c1-c1ccccc1[N+](=O)[O-] [Dehydronifedipine, dehydronifedipine]
AUC0–t ratio of dehydronifedipine to nifedipine ([3]; control rats, oral nifedipine 3 mg/kg in 50% PEG 400): 2.7 ± 0.5%
AUC0–t [3, 7]: 0.11 ± 0.01 µg·h/mL
AUC0–∞ [3, 7]: 0.13 ± 0.02 µg·h/mL
CL/F (apparent clearance) [3, 7]: 405 ± 53.3 mL/min/kg
Cmax [3, 7]: 50 ± 10 ng/mL
Tmax [3, 7]: 0.29 ± 0.05 h
Vd/F [3, 7]: 61.0 ± 13.3 L/kg
t1/2 [3, 7]: 1.9 ± 0.5 h
AUC0–t [3, 8]: 0.13 ± 0.02 µg·h/mL
AUC0–∞ [3, 8]: 0.24 ± 0.04 µg·h/mL
CL/F (apparent clearance) [3, 8]: 253 ± 55 mL/min/kg
Cmax [3, 8]: 40 ± 0 ng/mL
Tmax [3, 8]: 0.58 ± 0.08 h
Vd/F [3, 8]: 89.7 ± 14.4 L/kg
t1/2 [3, 8]: 4.8 ± 0.8 h
AUC0–t [3, 9]: 0.46 ± 0.11 ^* h·μg/ml
AUC0–∞ [3, 9]: 1.77 ± 0.53 ^* h·μg/ml
CL/F (apparent clearance) [3, 9]: 43.3 ± 16.7 mL/min/kg
Cmax [3, 9]: 100 ± 20 ng/mL
Tmax [3, 9]: 1.80 ± 0.55 h
Vd/F [3, 9]: 34.3 ± 7.4 L/kg
t1/2 [3, 9]: 12.3 ± 3.9 h
AUC0–t [3, 10]: 0.12 ± 0.02 µg·h/mL
AUC0–∞ [3, 10]: 0.14 ± 0.02 µg·h/mL
CL/F (apparent clearance) [3, 10]: 395 ± 48.3 mL/min/kg
Cmax [3, 10]: 40 ± 10 ng/mL
Tmax [3, 10]: 0.70 ± 0.12 h
Vd/F [3, 10]: 68.9 ± 9.0 L/kg
t1/2 [3, 10]: 2.0 ± 0.1 h
14-day stability in plasma samples [4]: 99.6–100.8%
AUC ratio of the dehydronifedipine to nifedipine ([5]; rats treated with nifedipine suspension (in water)): 38%
half-life (terminal) ([5]; rats, nifedipine suspended in water (10 mg/ml), oral dose 10 mg/kg): 15.7 h
AUC0–t ratio of dehydronifedipine to nifedipine ([5]; rats, ref 6 (Han et al.)): 2.7 ± 0.3%

COc1cc2c(c(OC)c1OC)-c1c(cc(OC)c(OC)c1OC)C[C@H](C)[C@H](C)C2 [schisandrin A]
decrease of NFO activity [6]: 48%
